# Key:
# [1] = target: T1, α1B-1α2bβ1-2 (Homo sapiens, UniProt Q00975, Y99N); type: binding
# T1 construct: contains, in pcDNA1, a full-length coding region encoding α1B-1; expressed in transfected cells; host or cells: HEK293 cells, transient
# Target sequence in this assay (Q00975 whole entry Y99N): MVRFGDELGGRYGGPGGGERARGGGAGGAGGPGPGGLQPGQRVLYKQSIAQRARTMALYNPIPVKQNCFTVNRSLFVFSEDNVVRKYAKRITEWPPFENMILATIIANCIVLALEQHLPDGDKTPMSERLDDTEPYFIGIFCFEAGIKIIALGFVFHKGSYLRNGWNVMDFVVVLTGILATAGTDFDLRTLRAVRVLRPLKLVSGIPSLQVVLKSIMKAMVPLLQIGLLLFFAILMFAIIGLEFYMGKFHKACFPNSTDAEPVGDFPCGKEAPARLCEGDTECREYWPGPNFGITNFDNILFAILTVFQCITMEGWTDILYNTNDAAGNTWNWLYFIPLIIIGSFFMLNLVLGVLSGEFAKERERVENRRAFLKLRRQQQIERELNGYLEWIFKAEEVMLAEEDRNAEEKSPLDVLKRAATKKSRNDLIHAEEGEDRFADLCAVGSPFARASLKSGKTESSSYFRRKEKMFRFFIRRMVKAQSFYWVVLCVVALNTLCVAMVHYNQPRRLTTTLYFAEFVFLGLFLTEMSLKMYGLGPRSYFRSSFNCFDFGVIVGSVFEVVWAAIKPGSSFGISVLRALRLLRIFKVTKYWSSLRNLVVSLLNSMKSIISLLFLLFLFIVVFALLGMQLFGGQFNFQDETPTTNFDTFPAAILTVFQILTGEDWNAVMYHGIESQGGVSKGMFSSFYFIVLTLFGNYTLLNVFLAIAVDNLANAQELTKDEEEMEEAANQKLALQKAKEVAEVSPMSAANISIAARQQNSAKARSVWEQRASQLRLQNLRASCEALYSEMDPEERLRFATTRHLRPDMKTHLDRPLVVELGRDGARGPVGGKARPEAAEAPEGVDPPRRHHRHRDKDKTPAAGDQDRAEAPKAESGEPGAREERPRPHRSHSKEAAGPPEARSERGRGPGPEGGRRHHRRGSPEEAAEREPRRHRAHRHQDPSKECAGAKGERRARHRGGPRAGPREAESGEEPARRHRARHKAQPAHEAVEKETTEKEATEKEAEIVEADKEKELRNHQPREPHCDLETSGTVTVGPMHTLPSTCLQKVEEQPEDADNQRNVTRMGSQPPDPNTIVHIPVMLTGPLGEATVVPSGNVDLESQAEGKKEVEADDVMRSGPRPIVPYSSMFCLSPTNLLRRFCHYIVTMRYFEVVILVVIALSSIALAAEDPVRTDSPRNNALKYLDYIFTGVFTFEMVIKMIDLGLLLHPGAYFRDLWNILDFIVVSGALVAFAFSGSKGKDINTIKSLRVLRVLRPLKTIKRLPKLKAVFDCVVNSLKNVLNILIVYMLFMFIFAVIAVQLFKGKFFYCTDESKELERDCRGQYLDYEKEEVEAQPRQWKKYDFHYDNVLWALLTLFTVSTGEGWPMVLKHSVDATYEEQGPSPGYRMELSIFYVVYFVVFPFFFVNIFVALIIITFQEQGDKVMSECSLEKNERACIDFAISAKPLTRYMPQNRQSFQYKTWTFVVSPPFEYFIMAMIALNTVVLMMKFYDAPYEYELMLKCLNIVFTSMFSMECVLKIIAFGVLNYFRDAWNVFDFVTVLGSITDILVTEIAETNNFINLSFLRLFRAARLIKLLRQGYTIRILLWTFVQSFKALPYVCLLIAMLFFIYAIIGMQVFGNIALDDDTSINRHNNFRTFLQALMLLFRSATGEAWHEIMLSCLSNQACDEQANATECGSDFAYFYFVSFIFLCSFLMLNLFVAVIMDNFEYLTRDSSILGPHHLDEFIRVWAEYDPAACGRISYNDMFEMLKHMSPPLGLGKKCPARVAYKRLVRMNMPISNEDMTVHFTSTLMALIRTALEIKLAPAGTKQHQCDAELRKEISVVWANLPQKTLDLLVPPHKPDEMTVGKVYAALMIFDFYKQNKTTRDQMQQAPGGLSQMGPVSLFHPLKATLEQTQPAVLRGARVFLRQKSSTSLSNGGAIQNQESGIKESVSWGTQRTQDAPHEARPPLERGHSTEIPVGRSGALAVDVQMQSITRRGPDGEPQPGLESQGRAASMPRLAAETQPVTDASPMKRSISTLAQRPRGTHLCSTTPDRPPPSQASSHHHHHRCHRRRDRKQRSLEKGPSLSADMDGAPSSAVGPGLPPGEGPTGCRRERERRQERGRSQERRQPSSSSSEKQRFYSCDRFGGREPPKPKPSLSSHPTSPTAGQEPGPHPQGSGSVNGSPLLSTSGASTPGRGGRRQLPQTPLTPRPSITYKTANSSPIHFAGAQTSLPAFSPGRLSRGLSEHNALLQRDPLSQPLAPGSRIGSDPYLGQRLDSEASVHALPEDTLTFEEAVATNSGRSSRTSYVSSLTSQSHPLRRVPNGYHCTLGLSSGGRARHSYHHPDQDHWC
# [2] = target: T2, α1B-1α2bβ1-3 (Homo sapiens, UniProt Q00975, Y99N); type: binding
# T2 construct: contains, in pcDNA1, a full-length coding region encoding α1B-1; expressed in transfected cells; host or cells: HEK293 cells, transient
# [3] = target: T3, α1B-1β1-2 (Homo sapiens, UniProt Q00975, Y99N); type: binding
# T3 construct: contains, in pcDNA1, a full-length coding region encoding α1B-1; expressed in transfected cells; host or cells: HEK293 cells, transient
# [4] = target: T4, α1B-1β1-3 (Homo sapiens, UniProt Q00975, Y99N); type: binding
# T4 construct: contains, in pcDNA1, a full-length coding region encoding α1B-1; expressed in transfected cells; host or cells: HEK293 cells, transient
# [5] = target: T5, α1B-1α2b (Homo sapiens, UniProt Q00975, Y99N); type: binding
# T5 construct: contains, in pcDNA1, a full-length coding region encoding α1B-1; expressed in transfected cells; host or cells: HEK293 cells, transient
# T5 sequence (Q00975 whole entry Y99N): as above
# T5 sequence (as listed by the source partner): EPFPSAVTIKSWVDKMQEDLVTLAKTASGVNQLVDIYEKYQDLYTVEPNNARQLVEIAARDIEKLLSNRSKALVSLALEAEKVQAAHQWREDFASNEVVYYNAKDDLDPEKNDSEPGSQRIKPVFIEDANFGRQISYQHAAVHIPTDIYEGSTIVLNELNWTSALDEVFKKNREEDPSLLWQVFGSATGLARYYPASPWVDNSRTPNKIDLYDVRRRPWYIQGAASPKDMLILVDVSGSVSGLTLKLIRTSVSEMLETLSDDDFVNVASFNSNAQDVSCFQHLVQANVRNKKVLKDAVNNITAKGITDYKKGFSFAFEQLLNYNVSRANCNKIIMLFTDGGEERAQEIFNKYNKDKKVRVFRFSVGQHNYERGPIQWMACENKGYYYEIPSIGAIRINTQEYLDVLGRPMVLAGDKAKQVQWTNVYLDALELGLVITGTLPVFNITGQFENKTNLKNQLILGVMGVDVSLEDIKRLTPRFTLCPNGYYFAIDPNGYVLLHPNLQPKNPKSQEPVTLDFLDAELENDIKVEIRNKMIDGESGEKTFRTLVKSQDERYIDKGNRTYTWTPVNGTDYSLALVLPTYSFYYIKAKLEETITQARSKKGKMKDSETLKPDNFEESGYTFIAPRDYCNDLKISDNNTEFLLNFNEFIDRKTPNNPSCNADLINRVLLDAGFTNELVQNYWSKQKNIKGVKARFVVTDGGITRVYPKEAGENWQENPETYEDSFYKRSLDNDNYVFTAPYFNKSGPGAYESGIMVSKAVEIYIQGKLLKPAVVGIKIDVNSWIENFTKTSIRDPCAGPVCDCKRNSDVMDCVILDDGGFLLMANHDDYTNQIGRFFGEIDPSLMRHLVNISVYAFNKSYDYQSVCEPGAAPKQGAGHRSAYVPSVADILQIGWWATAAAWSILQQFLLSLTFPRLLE
# T5 sequence (as listed by the source partner): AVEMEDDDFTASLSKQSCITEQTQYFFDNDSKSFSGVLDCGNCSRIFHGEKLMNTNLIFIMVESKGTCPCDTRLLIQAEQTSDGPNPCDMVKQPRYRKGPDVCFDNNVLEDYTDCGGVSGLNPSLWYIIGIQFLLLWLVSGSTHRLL
# [6] = target: T6, α1B-1 (Homo sapiens, UniProt Q00975, Y99N); type: binding
# T6 construct: contains, in pcDNA1, a full-length coding region encoding α1B-1; expressed in transfected cells; host or cells: HEK293 cells, transient
# T6 sequence (Q00975 whole entry Y99N): as the sequence (Q00975 whole entry Y99N) above
# [7] = target: T7, α1B-2α2bβ1-2 (Homo sapiens, UniProt Q00975, L2215R/Y99N); type: binding
# T7 construct: Full-length DNA clones and corresponding RNA transcripts, encoding α1, including splice variants of α1A, α1D, α1B; expressed in transfected cells; host or cells: HEK293 cells, transient
# [8] = target: T8, α1B-2α2bβ1-3 (Homo sapiens, UniProt Q00975, L2215R/Y99N); type: binding
# T8 construct: Full-length DNA clones and corresponding RNA transcripts, encoding α1, including splice variants of α1A, α1D, α1B; expressed in transfected cells; host or cells: HEK293 cells, transient
# [9] = target: T9, α1B-2β1-2 (Homo sapiens, UniProt Q00975, L2215R/Y99N); type: binding
# T9 construct: Full-length DNA clones and corresponding RNA transcripts, encoding α1, including splice variants of α1A, α1D, α1B; expressed in transfected cells; host or cells: HEK293 cells, transient
# [10] = target: T10, α1B-2β1-3 (Homo sapiens, UniProt Q00975, L2215R/Y99N); type: binding
# T10 construct: Full-length DNA clones and corresponding RNA transcripts, encoding α1, including splice variants of α1A, α1D, α1B; expressed in transfected cells; host or cells: HEK293 cells, transient
# [11] = target: T11, α1B-2α2b (Homo sapiens, UniProt Q00975, L2215R/Y99N); type: binding
# T11 construct: Full-length DNA clones and corresponding RNA transcripts, encoding α1, including splice variants of α1A, α1D, α1B; expressed in transfected cells; host or cells: HEK293 cells, transient
# [12] = target: T12, α1B-2 (Homo sapiens, UniProt Q00975, L2215R/Y99N); type: binding
# T12 construct: Full-length DNA clones and corresponding RNA transcripts, encoding α1, including splice variants of α1A, α1D, α1B; expressed in transfected cells; host or cells: HEK293 cells, transient
# [13] = tested on: subunit combinations lacking either the α1B-1 or the α1B-2 subunit
# [14] = tested on: untransfected HEK 293 cells; assay: whole-cell patch clamp, untransfected HEK 293 cells; type: cell-based, human; conditions: with or without cAMP or forskolin
# [15] = target: T1, α1B-1α2bβ1-2; type: cell-based
# Target sequence in this assay (Q00975 whole entry Y99N): as above
# Target sequence in this assay (as listed by the source partner): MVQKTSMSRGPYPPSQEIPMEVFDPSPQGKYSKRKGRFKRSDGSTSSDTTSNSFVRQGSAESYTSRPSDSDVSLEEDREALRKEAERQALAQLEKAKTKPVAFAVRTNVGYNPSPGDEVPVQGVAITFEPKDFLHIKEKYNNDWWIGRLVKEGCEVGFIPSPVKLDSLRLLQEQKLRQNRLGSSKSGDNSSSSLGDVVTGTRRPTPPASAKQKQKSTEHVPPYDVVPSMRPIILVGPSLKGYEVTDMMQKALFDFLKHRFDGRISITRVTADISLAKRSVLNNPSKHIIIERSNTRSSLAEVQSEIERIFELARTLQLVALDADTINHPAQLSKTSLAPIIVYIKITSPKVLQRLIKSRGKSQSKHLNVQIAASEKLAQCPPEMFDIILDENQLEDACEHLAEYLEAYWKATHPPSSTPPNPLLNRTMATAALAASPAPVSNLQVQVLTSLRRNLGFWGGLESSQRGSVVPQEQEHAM
# [16] = tested on: human neuronal calcium channel α2 and β1 subunits; assay: two-electrode voltage clamp, oöcytes injected with α2 and β1 transcripts; conditions: n=11
# [17] = target: human neuronal calcium channel α1D and β1 subunits (Homo sapiens, UniProt Q01668, S1346F/Y1433H); assay: two-electrode voltage clamp, oöcytes injected with α1D and β1 transcripts; conditions: two of four oöcytes; compared with α1D, α2, β1 oöcytes
# [18] = target: human neuronal calcium channel α1D and α2 subunits (Homo sapiens, UniProt Q01668, S1346F/Y1433H); assay: two-electrode voltage clamp, oöcytes injected with α1D and α2 transcripts; conditions: 15-30 nA currents; holding potential −90 mV
# [19] = target: T13, α1B-1, α2b and β1-2 subunits (Homo sapiens, UniProt Q00975, Y99N); type: binding
# T13 construct: contains, in pcDNA1, a full-length coding region encoding α1B-1; expressed in transfected cells; host or cells: HEK293 cells, transient
# T13 sequence (Q00975 whole entry Y99N): as the sequence (Q00975 whole entry Y99N) above
# [20] = tested on: cells transfected with only β-galactosidase-encoding DNA or α2bβ-encoding DNA
# [21] = tested on: untransfected HEK293 cells
# [22] = tested on: calcium channels containing α1E subunits; type: cell-based, human
compound,measurement,setting,value
C[C@@H](O)[C@@H]1NC(=O)[C@H](Cc2ccc(O)cc2)NC(=O)[C@@H]2C[C@@H](O)CN2C(=O)[C@H](CC(N)=O)NC(=O)[C@@H]2CSSC[C@@H]3NC(=O)[C@H](CO)NC(=O)[C@H](CO)NC(=O)CNC(=O)[C@@H]4C[C@@H](O)CN4C(=O)[C@H](CO)NC(=O)[C@H](CCCCN)NC(=O)[C@@H](N)CSSC[C@H](NC(=O)[C@H](CSSC[C@@H](C(=O)N[C@@H](Cc4ccc(O)cc4)C(N)=O)NC(=O)[C@H](CCCNC(=N)N)NC(=O)[C@H](CCCCN)NC1=O)NC(=O)[C@H](CC(N)=O)NC(=O)[C@H](Cc1ccc(O)cc1)NC(=O)[C@H](CO)NC(=O)[C@H]([C@@H](C)O)NC(=O)[C@@H]1C[C@@H](O)CN1C(=O)[C@H](CO)NC3=O)C(=O)N[C@@H](CCCNC(=N)N)C(=O)N[C@@H](CO)C(=O)N2 [125I-ω-CgTx GVIA],Bmax (sites/cell),[1],"45,324 ± 15,606 sites/cell"
same,Bmax (sites/cell),[2],"91,004 ± 37,654 sites/cell"
same,Bmax (sites/cell),[3],"5,756 ± 2,163 sites/cell"
same,Bmax (sites/cell),[4],"8,729 ± 2,980 sites/cell"
same,Bmax (sites/cell),[5],"2,256 ± 356 sites/cell"
same,Bmax (sites/cell),[6],757 ± 128 sites/cell
same,number of binding sites,[6],approximately 750 binding sites/cell
same,Bmax (sites/cell),[7],"19,371 ± 3,798 sites/cell"
same,Bmax (sites/cell),[8],"37,652 ± 8,129 sites/cell"
same,Bmax (sites/cell),[9],"2,126 ± 412 sites/cell"
same,Bmax (sites/cell),[10],"2,944 ± 1,168 sites/cell"
same,Kd (pM),[11],too low for reliable Scatchard analysis
same,Kd (pM),[12],too low for reliable Scatchard analysis
same,detectable 125I-ω-CgTx GVIA binding,[13],≤ 600 sites/cell
COC(=O)C1=C(C)NC(C)=C([N+](=O)[O-])C1c1ccccc1C(F)(F)F (stereo not drawn) [Bay K 8644],effects of Bay K 8644 on currents,[14],No such effects
same,effect on IBa,[15]; n=4,no discernable effect
same,sensitivity of inward barium currents to Bay K 8644,[16],insensitive
same,sensitivity of Ba2+ currents to Bay K 8644,[17],similar
same,response of barium currents to Bay K 8644,[18],little or no response
[Cd] [cadmium],blockage of IBa,[15]; 50 μM,"rapid, complete, and reversible"
C[C@@H](O)[C@@H]1NC(=O)[C@H](Cc2ccc(O)cc2)NC(=O)[C@@H]2C[C@@H](O)CN2C(=O)[C@H](CC(N)=O)NC(=O)[C@@H]2CSSC[C@@H]3NC(=O)[C@H](CO)NC(=O)[C@H](CO)NC(=O)CNC(=O)[C@@H]4C[C@@H](O)CN4C(=O)[C@H](CO)NC(=O)[C@H](CCCCN)NC(=O)[C@@H](N)CSSC[C@H](NC(=O)[C@H](CSSC[C@@H](C(=O)N[C@@H](Cc4ccc(O)cc4)C(N)=O)NC(=O)[C@H](CCCNC(=N)N)NC(=O)[C@H](CCCCN)NC1=O)NC(=O)[C@H](CC(N)=O)NC(=O)[C@H](Cc1ccc(O)cc1)NC(=O)[C@H](CO)NC(=O)[C@H]([C@@H](C)O)NC(=O)[C@@H]1C[C@@H](O)CN1C(=O)[C@H](CO)NC3=O)C(=O)N[C@@H](CCCNC(=N)N)C(=O)N[C@@H](CO)C(=O)N2 [ωCgTX],block of activity,[15],blocked the activity completely
same,block of channels,[15],blocked irreversibly
same,time to complete block,[15],≤ 2 min
same,binding capacity (Bmax),[19],"28,710±11,950 sites per cell"
same,specific binding,[20],no specific binding
same,detectable ω-CgTx GVIA binding sites,[21],do not express detectable
ω-Aga-IVA: funnel web spider toxin that blocks certain high voltage activated channels (KKKCIAKDYGRCKWGGTPCCRGRGCICSIMGTNCECKPRLIMEGLGLA),sensitivity of channels containing α1E subunits,[22],sensitive
